According to the NIST ThermoML archive (doi:10.1016/j.jct.2017.02.022):
± gives the expanded uncertainty stated by the source.

Assay: molar heat capacity at constant pressure
Settings: 298 K; 101.33 kPa; Liquid; Small sample (50 mg) DSC

| molar heat capacity at constant pressure | SMILES |
| --- | --- |
| 298.1 ± 40 J/K/mol | COS(=O)(=O)[O-].Cn1cc[n+](C)c1 [1,3-dimethylimidazolium methylsulfate] |
| 313.3 ± 40 J/K/mol | CCn1cc[n+](C)c1.COS(=O)(=O)[O-] [1-ethyl-3-methylimidazolium methylsulfate] |

Same assay, conditions: 303 K; 101.33 kPa; Liquid; Small sample (50 mg) DSC

| molar heat capacity at constant pressure | SMILES |
| --- | --- |
| 303.1 ± 40 J/K/mol | COS(=O)(=O)[O-].Cn1cc[n+](C)c1 [1,3-dimethylimidazolium methylsulfate] |
| 319.9 ± 40 J/K/mol | CCn1cc[n+](C)c1.COS(=O)(=O)[O-] [1-ethyl-3-methylimidazolium methylsulfate] |

Same assay, conditions: 308 K; 101.33 kPa; Liquid; Small sample (50 mg) DSC

| molar heat capacity at constant pressure | SMILES |
| --- | --- |
| 308 ± 40 J/K/mol | COS(=O)(=O)[O-].Cn1cc[n+](C)c1 [1,3-dimethylimidazolium methylsulfate] |
| 326.6 ± 40 J/K/mol | CCn1cc[n+](C)c1.COS(=O)(=O)[O-] [1-ethyl-3-methylimidazolium methylsulfate] |

Same assay, conditions: 313 K; 101.33 kPa; Liquid; Small sample (50 mg) DSC

| molar heat capacity at constant pressure | SMILES |
| --- | --- |
| 312.9 ± 40 J/K/mol | COS(=O)(=O)[O-].Cn1cc[n+](C)c1 [1,3-dimethylimidazolium methylsulfate] |
| 333.2 ± 40 J/K/mol | CCn1cc[n+](C)c1.COS(=O)(=O)[O-] [1-ethyl-3-methylimidazolium methylsulfate] |

Assay: xn = mol fraction of the nth substance listed
Settings: 298 K; 101.3 kPa; Liquid; Frequency=3 MHz; Sing-around technique in a fixed-path interferometer; x2 = 0

| SMILES | speed of sound |
| --- | --- |
| CCCO [propan-1-ol] + CCn1cc[n+](C)c1.COS(=O)(=O)[O-] | 1208 ± 20 m/s |
| CCCO [propan-1-ol] + COS(=O)(=O)[O-].Cn1cc[n+](C)c1 | 1208 ± 20 m/s |

More lines, now with the values ahead:

| speed of sound | SMILES |
| --- | --- |
| 1240 ± 20 m/s | CCCCO [butan-1-ol] + CCn1cc[n+](C)c1.COS(=O)(=O)[O-] |
| 1240 ± 20 m/s | CCCCO [butan-1-ol] + COS(=O)(=O)[O-].Cn1cc[n+](C)c1 |
| 1276 ± 20 m/s | CCCCCO [pentan-1-ol] + CCn1cc[n+](C)c1.COS(=O)(=O)[O-] |
| 1276 ± 20 m/s | CCCCCO [pentan-1-ol] + COS(=O)(=O)[O-].Cn1cc[n+](C)c1 |

Same assay, conditions: 298 K; 101.3 kPa; Liquid; Vibrating tube method; x2 = 0

| SMILES | mass density |
| --- | --- |
| CCCO [propan-1-ol] + CCn1cc[n+](C)c1.COS(=O)(=O)[O-] | 800 ± 2 kg/m3 |
| CCCO [propan-1-ol] + COS(=O)(=O)[O-].Cn1cc[n+](C)c1 | 800 ± 2 kg/m3 |

Other lines, results leading:

| mass density | SMILES |
| --- | --- |
| 806 ± 2 kg/m3 | CCCCO [butan-1-ol] + CCn1cc[n+](C)c1.COS(=O)(=O)[O-] |
| 806 ± 2 kg/m3 | CCCCO [butan-1-ol] + COS(=O)(=O)[O-].Cn1cc[n+](C)c1 |
| 811 ± 2 kg/m3 | CCCCCO [pentan-1-ol] + CCn1cc[n+](C)c1.COS(=O)(=O)[O-] |
| 811 ± 2 kg/m3 | CCCCCO [pentan-1-ol] + COS(=O)(=O)[O-].Cn1cc[n+](C)c1 |

Same assay, conditions: 303 K; 101.3 kPa; Liquid; Frequency=3 MHz; Sing-around technique in a fixed-path interferometer; x2 = 0

| SMILES | speed of sound |
| --- | --- |
| CCCO [propan-1-ol] + CCn1cc[n+](C)c1.COS(=O)(=O)[O-] | 1191 ± 20 m/s |
| CCCO [propan-1-ol] + COS(=O)(=O)[O-].Cn1cc[n+](C)c1 | 1191 ± 20 m/s |

Other lines, results leading:

| speed of sound | SMILES |
| --- | --- |
| 1224 ± 20 m/s | CCCCO [butan-1-ol] + CCn1cc[n+](C)c1.COS(=O)(=O)[O-] |
| 1224 ± 20 m/s | CCCCO [butan-1-ol] + COS(=O)(=O)[O-].Cn1cc[n+](C)c1 |
| 1259 ± 20 m/s | CCCCCO [pentan-1-ol] + CCn1cc[n+](C)c1.COS(=O)(=O)[O-] |
| 1259 ± 20 m/s | CCCCCO [pentan-1-ol] + COS(=O)(=O)[O-].Cn1cc[n+](C)c1 |

Same assay, conditions: 303 K; 101.3 kPa; Liquid; Vibrating tube method; x2 = 0

| SMILES | mass density |
| --- | --- |
| CCCO [propan-1-ol] + CCn1cc[n+](C)c1.COS(=O)(=O)[O-] | 796 ± 2 kg/m3 |
| CCCO [propan-1-ol] + COS(=O)(=O)[O-].Cn1cc[n+](C)c1 | 796 ± 2 kg/m3 |

The remaining lines, values ahead:

| mass density | SMILES |
| --- | --- |
| 802 ± 2 kg/m3 | CCCCO [butan-1-ol] + CCn1cc[n+](C)c1.COS(=O)(=O)[O-] |
| 802 ± 2 kg/m3 | CCCCO [butan-1-ol] + COS(=O)(=O)[O-].Cn1cc[n+](C)c1 |
| 807 ± 2 kg/m3 | CCCCCO [pentan-1-ol] + CCn1cc[n+](C)c1.COS(=O)(=O)[O-] |
| 807 ± 2 kg/m3 | CCCCCO [pentan-1-ol] + COS(=O)(=O)[O-].Cn1cc[n+](C)c1 |

Same assay, conditions: 308 K; 101.3 kPa; Liquid; Frequency=3 MHz; Sing-around technique in a fixed-path interferometer; x2 = 0

| SMILES | speed of sound |
| --- | --- |
| CCCO [propan-1-ol] + CCn1cc[n+](C)c1.COS(=O)(=O)[O-] | 1174 ± 20 m/s |
| CCCO [propan-1-ol] + COS(=O)(=O)[O-].Cn1cc[n+](C)c1 | 1174 ± 20 m/s |

The next lines start with the values.

| speed of sound | SMILES |
| --- | --- |
| 1206 ± 20 m/s | CCCCO [butan-1-ol] + CCn1cc[n+](C)c1.COS(=O)(=O)[O-] |
| 1206 ± 20 m/s | CCCCO [butan-1-ol] + COS(=O)(=O)[O-].Cn1cc[n+](C)c1 |
| 1242 ± 20 m/s | CCCCCO [pentan-1-ol] + CCn1cc[n+](C)c1.COS(=O)(=O)[O-] |
| 1242 ± 20 m/s | CCCCCO [pentan-1-ol] + COS(=O)(=O)[O-].Cn1cc[n+](C)c1 |

Same assay, conditions: 308 K; 101.3 kPa; Liquid; Vibrating tube method; x2 = 0

| SMILES | mass density |
| --- | --- |
| CCCO [propan-1-ol] + CCn1cc[n+](C)c1.COS(=O)(=O)[O-] | 792 ± 2 kg/m3 |
| CCCO [propan-1-ol] + COS(=O)(=O)[O-].Cn1cc[n+](C)c1 | 792 ± 2 kg/m3 |

Now from value to compound:

| mass density | SMILES |
| --- | --- |
| 798 ± 2 kg/m3 | CCCCO [butan-1-ol] + CCn1cc[n+](C)c1.COS(=O)(=O)[O-] |
| 798 ± 2 kg/m3 | CCCCO [butan-1-ol] + COS(=O)(=O)[O-].Cn1cc[n+](C)c1 |
| 803 ± 2 kg/m3 | CCCCCO [pentan-1-ol] + CCn1cc[n+](C)c1.COS(=O)(=O)[O-] |
| 803 ± 2 kg/m3 | CCCCCO [pentan-1-ol] + COS(=O)(=O)[O-].Cn1cc[n+](C)c1 |

Same assay, conditions: 313 K; 101.3 kPa; Liquid; Frequency=3 MHz; Sing-around technique in a fixed-path interferometer; x2 = 0

| SMILES | speed of sound |
| --- | --- |
| CCCO [propan-1-ol] + CCn1cc[n+](C)c1.COS(=O)(=O)[O-] | 1158 ± 20 m/s |
| CCCO [propan-1-ol] + COS(=O)(=O)[O-].Cn1cc[n+](C)c1 | 1158 ± 20 m/s |

The remaining lines, values ahead:

| speed of sound | SMILES |
| --- | --- |
| 1190 ± 20 m/s | CCCCO [butan-1-ol] + CCn1cc[n+](C)c1.COS(=O)(=O)[O-] |
| 1190 ± 20 m/s | CCCCO [butan-1-ol] + COS(=O)(=O)[O-].Cn1cc[n+](C)c1 |
| 1226 ± 20 m/s | CCCCCO [pentan-1-ol] + CCn1cc[n+](C)c1.COS(=O)(=O)[O-] |
| 1226 ± 20 m/s | CCCCCO [pentan-1-ol] + COS(=O)(=O)[O-].Cn1cc[n+](C)c1 |

Same assay, conditions: 313 K; 101.3 kPa; Liquid; Vibrating tube method; x2 = 0

| SMILES | mass density |
| --- | --- |
| CCCO [propan-1-ol] + CCn1cc[n+](C)c1.COS(=O)(=O)[O-] | 789 ± 2 kg/m3 |
| CCCO [propan-1-ol] + COS(=O)(=O)[O-].Cn1cc[n+](C)c1 | 789 ± 2 kg/m3 |

Continued, values first:

| mass density | SMILES |
| --- | --- |
| 794 ± 2 kg/m3 | CCCCO [butan-1-ol] + CCn1cc[n+](C)c1.COS(=O)(=O)[O-] |
| 794 ± 2 kg/m3 | CCCCO [butan-1-ol] + COS(=O)(=O)[O-].Cn1cc[n+](C)c1 |
| 800 ± 2 kg/m3 | CCCCCO [pentan-1-ol] + CCn1cc[n+](C)c1.COS(=O)(=O)[O-] |
| 800 ± 2 kg/m3 | CCCCCO [pentan-1-ol] + COS(=O)(=O)[O-].Cn1cc[n+](C)c1 |

Assay: refractive index (Na D-line) (dimensionless); xn = mol fraction of the nth substance listed
Settings: 298 K; 101.3 kPa; Liquid; Standard Abbe refractometry; x2 = 0

| SMILES | refractive index |
| --- | --- |
| CCCO [propan-1-ol] + CCn1cc[n+](C)c1.COS(=O)(=O)[O-] | 1.383 ± 0.01 |
| CCCO [propan-1-ol] + COS(=O)(=O)[O-].Cn1cc[n+](C)c1 | 1.383 ± 0.01 |

Second part, the compound after the results:

| refractive index | SMILES |
| --- | --- |
| 1.397 ± 0.01 | CCCCO [butan-1-ol] + CCn1cc[n+](C)c1.COS(=O)(=O)[O-] |
| 1.397 ± 0.01 | CCCCO [butan-1-ol] + COS(=O)(=O)[O-].Cn1cc[n+](C)c1 |
| 1.408 ± 0.01 | CCCCCO [pentan-1-ol] + CCn1cc[n+](C)c1.COS(=O)(=O)[O-] |
| 1.408 ± 0.01 | CCCCCO [pentan-1-ol] + COS(=O)(=O)[O-].Cn1cc[n+](C)c1 |

Same assay, conditions: 303 K; 101.3 kPa; Liquid; Standard Abbe refractometry; x2 = 0

| SMILES | refractive index |
| --- | --- |
| CCCO [propan-1-ol] + CCn1cc[n+](C)c1.COS(=O)(=O)[O-] | 1.382 ± 0.01 |
| CCCO [propan-1-ol] + COS(=O)(=O)[O-].Cn1cc[n+](C)c1 | 1.382 ± 0.01 |

Other lines, results leading:

| refractive index | SMILES |
| --- | --- |
| 1.395 ± 0.01 | CCCCO [butan-1-ol] + CCn1cc[n+](C)c1.COS(=O)(=O)[O-] |
| 1.395 ± 0.01 | CCCCO [butan-1-ol] + COS(=O)(=O)[O-].Cn1cc[n+](C)c1 |
| 1.407 ± 0.01 | CCCCCO [pentan-1-ol] + CCn1cc[n+](C)c1.COS(=O)(=O)[O-] |
| 1.407 ± 0.01 | CCCCCO [pentan-1-ol] + COS(=O)(=O)[O-].Cn1cc[n+](C)c1 |

Same assay, conditions: 308 K; 101.3 kPa; Liquid; Standard Abbe refractometry; x2 = 0

| refractive index | SMILES |
| --- | --- |
| 1.392 ± 0.01 | CCCCO [butan-1-ol] + CCn1cc[n+](C)c1.COS(=O)(=O)[O-] |
| 1.392 ± 0.01 | CCCCO [butan-1-ol] + COS(=O)(=O)[O-].Cn1cc[n+](C)c1 |
